A short description of series [1]: Inhibition of cell growth in human HaCaT cells incubated for 72 hrs by MTT assay. In kind it is toxicity, cell-based. (In general: Tetrazolium assays rely on reduction of a dye to a coloured formazan, in cell work by metabolically active cells.)
The subject of series [2] is SK-MEL-28. Kind of series: Anticancer activity against human SK-MEL-28 cells assessed as cell growth at 10 umol/L incubated for 48 hrs by SRB assay relative to control. The conditions noted are these: SK-MEL-28, 48 h, dose 10 µmol/L, read-out: Activity. Type of series: functional. Background: Sulforhodamine B stains cellular protein and so reports cell mass.
Series [3] has as its system Panc02. Kind of series: Inhibition of cell growth in mouse Panc02 cells incubated for 72 hrs by MTT assay. In kind it is functional.
For series [4], the system named is T47D. Kind of series: Anticancer activity against human T47D cells assessed as cell growth at 10 umol/L incubated for 48 hrs by SRB assay relative to control. In kind it is functional. As to conditions: dose 10 µmol/L, read-out: Activity.
In series [5] the test system is K562. Kind of series: Inhibition of cell growth in human K562 cells incubated for 72 hrs by MTT assay. Type of series: functional, cell-based.
For series [6], the target named is T1, Tubulin (Homo sapiens) (UniProt P68371+Q9H4B7+P0DPH7+P68366+Q13509+Q71U36+P04350+Q3ZCM7+P07437+P68363+Q9BQE3+Q6PEY2+Q13885+Q9BVA1+Q9BUF5). Kind of series: Inhibition of tubulin polymerization in human K562 cells at 0.5 uM incubated for 24 hrs by confocal microscopy. Type of series: cell-based.
In series [7] the test system is HT-29. Kind of series: Inhibition of cell growth in human HT-29 cells incubated for 72 hrs by MTT assay. Type of series: functional, cell-based. The conditions noted are these: HT-29, 72 h.
Series [8] relates to K562. Kind of series: Antiproliferative activity against human K562 cells assessed as mean cell growth at 10 uM incubated for 48 hrs by SRB assay relative to control. In kind it is functional.
The test system of series [9] is HT-29. Kind of series: Downregulation of beta-actin level in human HT-29 cells upto 100 uM incubated for 48 hrs by Western blot analysis. In kind it is functional, cell-based. A general note: Immunoblotting shows a protein as a band on a membrane.
In series [10] the test system is OVCAR-8. Kind of series: Anticancer activity against human OVCAR-8 cells assessed as cell growth at 10 umol/L incubated for 48 hrs by SRB assay relative to control. In kind it is functional. As to conditions: OVCAR-8, 48 h, dose 10 µmol/L, read-out: Activity.
For series [11], the system named is Panel NCI-60 (60 carcinoma cell lines). Kind of series: Antiproliferative activity against human panel NCI-60 (60 carcinoma cell lines) incubated for 48 hrs by SRB assay. Type of series: functional.
Series [12] deals with COLO357. Kind of series: Inhibition of cell growth in human COLO357 cells incubated for 72 hrs by MTT assay. Type of series: functional, cell-based.
The test system of series [13] is OVCAR-3. Kind of series: Anticancer activity against human OVCAR-3 cells assessed as cell growth at 10 umol/L incubated for 48 hrs by SRB assay relative to control. In kind it is functional. The conditions noted are these: OVCAR-3, 48 h, dose 10 µmol/L, read-out: Activity.
Series [14] relates to Panel NCI-60 (60 carcinoma cell lines). Kind of series: Antiproliferative activity against human panel NCI-60 (60 carcinoma cell lines) assessed as total inhibition of cell growth incubated for 48 hrs by SRB assay. Type of series: functional.
Series [15] has as its target T1, Tubulin (Homo sapiens). Kind of series: Inhibition of tubulin polymerization in human HT-29 cells upto 100 uM incubated for 48 hrs by Western blot analysis. Type of series: cell-based.

Usually IC50 stands for the concentration that inhibits the measured activity by half. Read a high IC50 as a need for much substance. As a reminder, the GI50 is the concentration at which growth is held to half of that of the control. The low end stands for more potent growth inhibition, the high end for less potent growth inhibition. Broadly, the LC50 is the concentration lethal to half of the exposed cells or organisms. Higher therefore signals a less lethal substance.

Calls of active or inactive are those of the source. The calls are words filed in the database; no cut-off is given here. Some results are limits rather than exact numbers.

With `CCN1C(=O)N(CC)C2C1NN=c1s/c(=C\c3ccc(Cl)cc3Cl)c(=O)n12` (stereo not drawn), 3.5 nM corresponded to half-maximal inhibition in series [1] (IC50 at 72 h). The growth at 10 µM in series [2] turned out to be 45.7%; in series [4], 58.8%; in [10], 10.8%; in [13], 13.4%. In addition, the GI50 in [3] was 16 nM; in [5] (K562, time 72 hrs) it was 0.64 nM; in series [11], 80 nM; in series [12] (COLO357, time 72 hrs) it was 16 nM. For the same compound, the IC50 in series [5] (K562, 72 h) is 2 nM; in series [7] it was 5.5 nM; in series [12] (COLO357, 72 h) it was 6 nM. Moreover, the inhibition result in [6] and in series [15] was “Active” each time. In series [8], the Activity is given as 18%. The outcome in [9] was Active. In series [11], this compound came in with an LC50 of over 96400 nM. The GI in series [14] is over 66.8 µM.

For the origin of these results see ChEMBL document CHEMBL5385976, “Recognition of arylmethylidene derivatives of imidazothiazolotriazinones as novel tubulin polymerization inhibitors” (RSC Med Chem, 2024).
